Experimental data taken from patent US8017611B2, “Pyridine and pyrazine derivatives -083” (AstraZeneca AB, priority 2007, dated 2011).

molecular target: T1, recombinant Axl tyrosine kinase (Homo sapiens, UniProt P30530); assay: In vitro Axl kinase assay (AlphaScreen), Test (a); format: biochemical; settings: test compound at 1 μM; first value quoted
T1 construct: encompassing amino acids 473 to 894 of Axl; GST (N); made in house; host or cells: SF126 insect cells
T1 sequence (P30530 473-894): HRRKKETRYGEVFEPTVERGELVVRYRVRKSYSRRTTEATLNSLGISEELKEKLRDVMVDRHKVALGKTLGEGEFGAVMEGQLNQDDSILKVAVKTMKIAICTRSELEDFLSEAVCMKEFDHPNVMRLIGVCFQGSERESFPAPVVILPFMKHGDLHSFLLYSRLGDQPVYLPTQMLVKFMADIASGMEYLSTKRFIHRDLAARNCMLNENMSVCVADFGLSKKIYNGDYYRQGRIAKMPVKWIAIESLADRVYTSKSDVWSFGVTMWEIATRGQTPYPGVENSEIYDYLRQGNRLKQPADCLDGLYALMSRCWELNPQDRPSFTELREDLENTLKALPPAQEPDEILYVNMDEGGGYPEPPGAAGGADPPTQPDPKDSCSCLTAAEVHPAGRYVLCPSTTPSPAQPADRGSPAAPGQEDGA

| Compound | % Axl tyrosine kinase inhibition at 1 μM concentration |
| --- | --- |
| N#CCc1ccc(-c2cnc(N)c(-c3nc4cnccc4o3)c2)cc1 [Example 8A.16] | 99.4% |
| CN1CCCC(Oc2ccc(-c3cnc(N)c(-c4nc5ncccc5o4)c3)cc2)C1 (centres unmarked) [Example 43B.9] | 98.2% |
| NCc1ccc(-c2cnc(N)c(-c3nc4ncccc4o3)c2)cc1 [Example 10A.4] | 99.0% |
| COc1cc(-c2cnc(N)c(-c3nc4ncccc4o3)c2)ccc1OCCN1CCCCC1 [Example 43C.8] | 99.9% |
| Nc1ncc(-c2cccc(CN3CCCC3)c2)cc1-c1nc2ccccc2o1 [Example 2.6] | 99.0% |
| Nc1ncc(-c2ccc(OCCN3CCOCC3)cc2)cc1-c1nc2cccnc2o1 [Example 43A.2] | 97.2% |
| COCC1CC(Oc2ccc(-c3cnc(N)c(-c4nc5ncccc5o4)c3)cc2OC)CN1 (centres unmarked) [Example 43C.36] | 99.8% |
| CN1CCN(CCNC(=O)c2ccc(-c3cnc(N)c(-c4nc5cccnc5o4)c3)cc2)CC1 [Example 45A.73] | 96.0% |
| NCC[C@H]1CCCN(C(=O)c2ccc(-c3cnc(N)c(-c4nc5cccnc5o4)c3)cc2)C1 [Example 45A.92] | 99.7% |
| Nc1ncc(-c2ccc(C(=O)NC3CCNCC3)cc2)cc1-c1nc2cccnc2o1 [Example 45A.103] | 97.3% |
| Nc1ncc(-c2cnn(CCN3CCC(O)CC3)c2)cc1-c1nc2ccccc2o1 [Example 31.9] | 99.8% |
| CN1CCC(n2cc(-c3cnc(N)c(-c4nc5cc(C(F)(F)F)ccc5o4)c3)cn2)CC1 [Example 7.11] | 98.1% |
| NCc1ccc(-c2cnc(N)c(-c3nc4cccnc4o3)c2)cc1 [Example 9A.13] | 98.3% |
| CN1CCCC1CCNC(=O)c1ccc(-c2cnc(N)c(-c3nc4cccnc4o3)c2)cc1 (centres unmarked) [Example 45A.5] | 98.8% |
| CN1CCC(n2cc(-c3cnc(N)c(-c4nc5c(F)cccc5o4)c3)c(CO)n2)CC1 [Example 41.32] | 100.0% |
| Nc1ncc(-c2ccc(C(=O)N3CCC(N4CCCCC4)CC3)cc2)cc1-c1nc2cccnc2o1 [Example 45A.52] | 94.3% |
| Cc1ccc2nc(-c3cc(-c4cnn(C5CCN(C)CC5)c4)cnc3N)oc2c1 [Example 7.9] | 99.7% |
| CCOc1nn(C2CCN(C)CC2)cc1-c1cnc(N)c(-c2nc3ccccc3o2)c1 [Example 41.13] | 100.0% |
| COc1cc(-c2cnc(N)c(-c3nc4ncccc4o3)c2)ccc1OCCN1CCN(C)CC1 [Example 43C.7] | 99.1% |
| Nc1ncc(-c2ccc(OCC3CCNCC3)cc2)cc1-c1nc2ncccc2o1 [Example 43B.36] | 98.3% |
| Nc1ncc(-c2ccc(C(=O)N3CCC(O)CC3)cc2)cc1-c1nc2ncccc2o1 [Example 10A.13] | 91.1% |
| CN1CCN(CCCOc2ccc(-c3cnc(N)c(-c4nc5ncccc5o4)c3)cc2)CC1 [Example 43B.14] | 95.1% |
| Cc1nn(C2CCNCC2)c(C)c1-c1cnc(N)c(-c2nc3ccccc3o2)c1 [Example 29.8] | 88.7% |
| CCN(CC)CCCOc1ccc(-c2cnc(N)c(-c3nc4ncccc4o3)c2)cc1OC [Example 43C.18] | 99.8% |
| Nc1ncc(-c2cnn(C3CCN(C(=O)CO)CC3)c2)cc1-c1nc2cccnc2o1 [Example 57.6] | 99.8% |
| Nc1ncc(-c2ccc(C(=O)N3CCCCC3CN3CCCCC3)cc2)cc1-c1nc2cccnc2o1 (centres unmarked) [Example 45A.8] | 99.8% |
| Cc1nn(C2CCN(C)CC2)cc1-c1cnc(N)c(-c2nc3c(F)cccc3o2)c1 [Example 41.23] | 100.0% |

| Compound | % Axl tyrosine kinase inhibition at 1 μM concentration |
| --- | --- |
| COc1cc(-c2cnc(N)c(-c3nc4ncccc4o3)c2)ccc1OCC1CCCN(C)C1 (centres unmarked) [Example 43C.12] | 99.6% |
| CNC1CCC(NC(=O)c2ccc(-c3cnc(N)c(-c4nc5cccnc5o4)c3)cc2)CC1 (centres unmarked) [Example 45A.99] | 95.9% |
| CC(=O)N1CCC(n2cc(-c3cnc(N)c(-c4nc5ccccc5o4)c3)cn2)CC1 [Example 34.1] | 99.8% |
| CN1C2CCC1CC(n1cc(-c3cnc(N)c(-c4nc5ccccc5o4)c3)cn1)C2 (centres unmarked) [Example 27.6] | 99.9% |
| Nc1ncc(-c2ccc(C(=O)NCCN3CCCC3)cc2)cc1-c1nc2cccnc2o1 [Example 45A.55] | 98.9% |
| Nc1ncc(-c2cnn(C3CCNC3)c2)cc1-c1nc2ccccc2o1 (centres unmarked) [Example 29.3] | 99.9% |
| Nc1ncc(-c2cccc(C(=O)NCCN3CCOCC3)c2)cc1-c1nc2cccnc2o1 [Example 9A.22] | 81.9% |
| NCc1cccc(-c2cnc(N)c(-c3nc4cnccc4o3)c2)c1 [Example 8A.27] | 98.6% |
| COc1nn(C2CCNCC2)cc1-c1cnc(N)c(-c2nc3ccccc3o2)c1 [Example 25.2] | 100.0% |
| Cc1nn(C2CCN(C)CC2)cc1-c1cnc(N)c(-c2nc3ccccc3o2)n1 [Example 41.21] | 100.0% |
| Nc1ncc(-c2cccc(CO)c2)cc1-c1nc2ccccc2o1 [Example 2.35] | 93.3% |
| CN1CCN(c2ccc(-c3cnc(N)c(-c4nc5ccccc5o4)n3)cn2)CC1 [Example 20.7] | 99.6% |
| CN(C)CCCCNC(=O)c1ccc(-c2cnc(N)c(-c3nc4cccnc4o3)c2)cc1 [Example 45A.2] | 96.6% |
| Nc1ncc(-c2ccc(C(=O)N3CCOCC3)cc2)cc1-c1nc2ncccc2o1 [Example 10A.14] | 92.7% |
| COCCOc1ccc(-c2cnc(N)c(-c3nc4ccccc4o3)c2)cc1 [Example 2.9] | 40.3% |
| CCN(CC)CCCOc1ccc(-c2cnc(N)c(-c3nc4ncccc4o3)c2)cc1 [Example 43B.20] | 98.9% |
| COc1cc(-c2cnc(N)c(-c3nc4ncccc4o3)c2)ccc1OCCCN(C)C [Example 43C.10] | 98.9% |
| CCN(CC)CCOc1ccc(-c2cnc(N)c(-c3nc4ncccc4o3)c2)cc1 [Example 43B.3] | 99.6% |
| CNC(=O)c1nn(C2CCN(C)CC2)cc1-c1cnc(N)c(-c2nc3ccccc3o2)c1 [Example 41.33] | 99.6% |
| CNC1CCN(C(=O)c2ccc(-c3cnc(N)c(-c4nc5cccnc5o4)c3)cc2)C1 (centres unmarked) [Example 45A.80] | 99.7% |
| CN(C)CCC1CCN(C(=O)c2ccc(-c3cnc(N)c(-c4nc5cccnc5o4)c3)cc2)CC1 [Example 45A.14] | 89.9% |
| Nc1ncc(-c2ccc(C(=O)N3CCCC3CN3CCCCCC3)cc2)cc1-c1nc2cccnc2o1 (centres unmarked) [Example 45A.17] | 99.6% |
| Nc1ncc(-c2cccc(N3CCCCC3)c2)cc1-c1nc2ccccc2o1 [Example 2.46] | 46.4% |
| Nc1ncc(-c2ccc(C(=O)NC3CCNC3)cc2)cc1-c1nc2cccnc2o1 (centres unmarked) [Example 45A.106] | 98.4% |
| CN(C)CCNC(=O)c1ccc(-c2cnc(N)c(-c3nc4ccccc4o3)c2)cc1 [Example 2.41] | 99.9% |
| Nc1ncc(-c2ccc(C(=O)N3CCC[C@H]3CN3CCCC3)cc2)cc1-c1nc2cccnc2o1 [Example 45A.66] | 99.9% |
| CN1CCC(NC(=O)c2ccc(-c3cnc(N)c(-c4nc5cccnc5o4)c3)cc2)C2CCCCC21 (centres unmarked) [Example 45A.44] | 99.3% |

same assay, conditions: test compound at 1 μM; first value quoted; read-out: % Axl tyrosine kinase inhibition at 1 μM concentration

| Compound | inhibition at 1 µM |
| --- | --- |
| CN1CCC(n2cc(-c3cnc(N)c(-c4nc5cccc(CO)c5o4)c3)cn2)CC1 [Example 65, [2-[2-amino-5-[1-(1-methyl-4-piperidyl)pyrazol-4-yl]-3-pyridyl]-1,3-benzoxazol-7-yl]methanol] | 100% |
| COCc1nn(C2CCN(CCO)CC2)cc1-c1cnc(N)c(-c2nc3ccccc3o2)c1 [Example 72, 2-[4-[4-[6-amino-5-(1,3-benzoxazol-2-yl)-3-pyridyl]-3-(methoxymethyl)pyrazol-1-yl]-1-piperidyl]ethanol] | 100% |
| Nc1ncc(-c2cnn(C3CCNCC3)c2)nc1-c1nc2ccccc2o1 [Example 17, 3-(1,3-Benzoxazol-2-yl)-5-[1-(4-piperidyl)pyrazol-4-yl]pyrazin-2-amine] | 99.6% |
| Nc1ncc(-c2cnn(CCN3CCOCC3)c2)cc1-c1nc2ccccc2o1 [Example 26, 3-(1,3-benzoxazol-2-yl)-5-[1-(2-morpholinoethyl)pyrazol-4-yl]pyridin-2-amine] | 99.3% |
| CNC(=O)CN1CCC(n2cc(-c3cnc(N)c(-c4nc5ccccc5o4)c3)c(COC)n2)CC1 [Example 68, 2-[4-[4-[6-amino-5-(1,3-benzoxazol-2-yl)-3-pyridyl]-3-(methoxymethyl)pyrazol-1-yl]-1-piperidyl]-N-methyl-acetamide] | 100% |
